Measured values as given in patent US20250304537A1 (Repare Therapeutics Inc., priority 2022, published 2025).
Where two headings read alike, the source gives them in different places.

System: PKMYT1 (CDK1 pThr14) in FUOV1 cells
Experiment: PKMYT1 cell-based activity assay, CDK1 pThr14 AlphaLISA in FUOV1 cells
Conditions: 2 h, read-out: FUOV-1 CDK1 pThr14 IC50
In short: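 IC50 was derived from AlphaLISA signal (excitation 680 nm, emission 615 nm) for phospho-Thr14 CDK1 in lysates. The detection antibodies were rabbit anti-pThr14 and mouse anti-total CDK1, each at 5 nM. FUOV1 ovarian cells were exposed to compound for 2 hours before lysis.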

Row | IC50 (2 h compound incubation) [nM] | IC50 (2 hours with compound) [nM] | Compound | other results
1 | 1610 |  | Cc1ccc2[nH]ncc2c1-c1nc(-c2ccc(F)cc2Nc2cc(C3(C#N)CC3)ccn2)nc(C(N)=O)c1N [Compound 698] | 
2 | 33 |  | Cc1cccnc1Nc1ncc(F)cc1-c1nc(C(N)=O)c(N)c(-c2c(C)ccc3[nH]ncc23)n1 [Compound 672] | 
3 | 24 |  | Cc1ccc2[nH]ncc2c1-c1cc2c(oc3ccc(NC4CCOCC4)nc32)c(C(N)=O)c1N [Compound 575] | 
4 |  | 2 | [2H]C([2H])([2H])c1ccc2[nH]ncc2c1-c1nc(-c2cccnc2Nc2nc(C)ccc2F)nc(C(N)=O)c1N [Compound 824] | 
5 |  | 30 | Cc1ccc2[nH]ncc2c1-c1nc(-c2ccc(F)cc2NC2CS(=O)(=O)C2)nc(C(N)=O)c1N [Compound 811, 5-amino-2-(2-((1,1-dioxidothietan-3-yl)amino)-4-fluorophenyl)-6-(5-methyl-1H-indazol-4-yl)pyrimidine-4-carboxamide] | 
6 | 201 |  | Cc1ccc2[nH]ncc2c1-c1nc(-c2ccc(C(F)(F)F)nc2Nc2ncccn2)nc(C(N)=O)c1N [Compound 760] | 
7 | 77 |  | Cc1ccc2[nH]ncc2c1-c1nc(-c2cccnc2NCCC#N)nc(C(N)=O)c1N [Compound 542] | 
8 | 219 |  | Cc1ccc2[nH]ncc2c1-c1nc(-c2nccnc2NCC(F)(F)F)nc(C(N)=O)c1N [Compound 555, 5-amino-6-(5-methyl-1H-indazol-4-yl)-2-(3-((2,2,2-trifluoroethyl)amino)pyrazin-2-yl)pyrimidine-4-carboxamide] | 
9 | 871 |  | Cc1ccc2[nH]ncc2c1-c1nc(-c2cc(F)c(F)cc2NC2CC(C)(C)NC(C)(C)C2)nc(C(N)=O)c1N [Compound 502] | 
10 |  | 9 | Cc1ccc2[nH]ncc2c1-c1nc(-c2cc(Cl)ncc2Nc2ncccc2F)nc(C(N)=O)c1N [Compound 939] | 
11 |  | 36 | Cc1ccc2[nH]ncc2c1-c1nc(-c2cc(F)cnc2N[C@@H]2CCOCC2(F)F)nc(C(N)=O)c1N [Compound 883] | 
12 |  | 4 | Cc1ccc2[nH]ncc2c1-c1nc(-c2ccc(F)nc2Nc2nc(C(F)F)ccc2F)nc(C(N)=O)c1N [Compound 947] | 
13 | 241 |  | Cc1ccc2[nH]ncc2c1-c1nc(-c2cc(Cl)ccc2Nc2ncccn2)nc(C(N)=O)c1N [Compound 637] | 
14 | 155 |  | Cc1ccc2[nH]ncc2c1-c1nc(-c2cccnc2Nc2ncccc2CC#N)nc(C(N)=O)c1N [Compound 741] | 
15 | 48 |  | Cc1ccc2[nH]ncc2c1-c1nc(-c2cc(F)cnc2N[C@H]2C[C@@](C)(O)C2)nc(C(N)=O)c1N [Compound 733, 5-amino-2-(5-fluoro-2-(((1s,3s)-3-hydroxy-3-methylcyclobutyl)amino)pyridin-3-yl)-6-(5-methyl-1H-indazol-4-yl)pyrimidine-4-carboxamide] | 
16 | 23 |  | Cc1ccc2[nH]ncc2c1-c1nc(-c2ccc(C#N)cc2Nc2cccnn2)nc(C(N)=O)c1N [Compound 765] | 
17 | 113 |  | Cc1ccc2[nH]ncc2c1-c1nc(-c2ccc(Cl)nc2N[C@H]2C[C@@](C)(O)C2)nc(C(N)=O)c1N [Compound 772] | 
18 | > 10000 |  | COc1ccccc1-c1nc(C(N)=O)c(N)c(-c2c(C)ccc3[nH]ncc23)n1 [Compound 777] | 
19 | 61 |  | Cc1ccc(-c2nc(C(N)=O)c(N)c(-c3c(C)ccc4[nH]ncc34)n2)c(Nc2ncccn2)c1 [Compound 653] | 
20 |  | 174 | Cc1c(F)cc2[nH]ncc2c1-c1nc(-c2cccnc2NCC(F)(F)F)nc(C(N)=O)c1N [Compound 849] | 
21 |  |  | CC(=O)N1CCN(c2nccc(-c3cc(-c4c(C)ccc5[nH]ncc45)c(N)c(C(N)=O)n3)n2)CC1 [Compound 215] | IC50 (2 h incubation): 399 nM

Row | IC50 (2 h compound incubation) [nM] | IC50 (2 hours with compound) [nM] | Compound | other results
22 | 681 |  | Cc1ccc2[nH]ncc2c1-c1nc(-c2cc(F)ccc2NS(=O)(=O)C(F)F)nc(C(N)=O)c1N [Compound 493] | 
23 |  | 42 | Cc1ccc(-c2nc(C(N)=O)c(N)c(-c3c(Cl)ccc4[nH]ncc34)n2)c(Nc2ncccn2)n1 [Compound 950] | 
24 | 48 |  | Cc1ccc2[nH]ncc2c1-c1nc(-c2ccc(F)cc2Nc2cnccc2C#N)nc(C(N)=O)c1N [Compound 699] | 
25 |  | 7 | Cc1ccc2[nH]ncc2c1-c1nc(-c2ccc(F)nc2Nc2ncccc2F)nc(C(N)=O)c1N [Compound 929] | 
26 |  | 203 | [2H]C([2H])([2H])c1ccc2[nH]ncc2c1-c1nc(-c2ccc(C3CC3)nc2Nc2nc(C)ncc2F)nc(C(N)=O)c1N [Compound 977] | 
27 | 702 |  | Cc1ccc2[nH]ncc2c1-c1nc(-c2ccc(F)cc2Nc2nccc(N3CCOCC3)n2)nc(C(N)=O)c1N [Compound 577] | 
28 | 4 |  | Cc1ccc2[nH]ncc2c1-c1nc(-c2ccc(F)cc2Nc2ncncc2F)nc(C(N)=O)c1N [Compound 526] | 
29 | 15 |  | Cc1nc(F)cc(Nc2cc(F)ccc2-c2nc(C(N)=O)c(N)c(-c3c(C)ccc4[nH]ncc34)n2)n1 [Compound 568] | 
30 | 283 |  | Cc1ccc2[nH]ncc2c1-c1nc(-c2cc(F)ccc2NS(=O)(=O)C2CCC2)nc(C(N)=O)c1N [Compound 571] | 
31 | 8 |  | Cc1ccc2[nH]ncc2c1-c1nc(-c2ccc(F)cc2Nc2ccncc2C#N)nc(C(N)=O)c1N [Compound 590] | 
32 |  | 8 | Cc1cc(F)c2[nH]ncc2c1-c1nc(-c2ccc(F)cc2Nc2ncccc2C#N)nc(C(N)=O)c1N [Compound 880] | 
33 | 65 |  | Cc1ccc2[nH]ncc2c1-c1nc(-c2cc(F)cnc2NCC(C)(C)O)nc(C(N)=O)c1N [Compound 683] | 
34 |  | 71 | Cc1ccc2[nH]ncc2c1-c1nc(-c2ccc(C#N)cc2N[C@H]2C[C@](C)(O)C2)nc(C(N)=O)c1N [Compound 821] | 
35 |  | 11 | Cc1ncc(F)c(Nc2nc(F)ccc2-c2nc(C(N)=O)c(N)c(-c3c(C)ccc4[nH]ncc34)n2)n1 [Compound 954, 5-amino-2-(6-fluoro-2-((5-fluoro-2-methylpyrimidin-4-yl)amino)pyridin-3-yl)-6-(5-methyl-1H-indazol-4-yl)pyrimidine-4-carboxamide] | 
36 | 918 |  | Cc1ccc2[nH]ncc2c1-c1nc(-c2cc(F)ccc2NS(=O)(=O)C2CCCC2)nc(C(N)=O)c1N [Compound 531] | 
37 | 232 |  | Cc1ccc2[nH]ncc2c1-c1nc(-c2cc(F)cnc2N[C@H]2CC[C@](C)(O)CC2)nc(C(N)=O)c1N [Compound 722] | 
38 |  | 139 | Cc1cc(F)c2[nH]ncc2c1-c1nc(-c2ccc(F)nc2Nc2nccnc2C(F)F)nc(C(N)=O)c1N [Compound 868] | 
39 |  |  | Cc1ccc2[nH]ncc2c1-c1cc(-c2ccnc(OCc3nccn3C)n2)nc(C(N)=O)c1N [Compound 301] | IC50 (2 h incubation): 39 nM
40 | 7040 |  | Cc1ccc2[nH]ncc2c1-c1cc2c(oc3ccc(OCC(F)(F)F)nc32)c(C(N)=O)c1N [Compound 560] | 
41 |  | 16 | N#Cc1cccnc1Nc1nc(F)ccc1-c1nc(C(N)=O)c(N)c(-c2c(F)ccc3[nH]ncc23)n1 [Compound 969] | 
42 |  | 54 | Cc1ccc2[nH]ncc2c1-c1nc(-c2cc(Cl)ncc2NC2CC(F)(F)C2)nc(C(N)=O)c1N [Compound 840] | 

Row | IC50 (2 h compound incubation) [nM] | IC50 (2 hours with compound) [nM] | Compound | other results
43 | 11 |  | Cc1ccc2[nH]ncc2c1-c1nc(-c2cccnc2Nc2ncccc2C(F)(F)F)nc(C(N)=O)c1N [Compound 767] | 
44 |  | 8 | Cc1ccc2[nH]ncc2c1-c1nc(-c2ccc(Cl)nc2Nc2ncccc2C#N)nc(C(N)=O)c1N [Compound 935] | 
45 |  | 23 | Cc1ccc2[nH]ncc2c1-c1nc(-c2ccc(F)nc2NC2CS(=O)(=O)C2)nc(C(N)=O)c1N [Compound 819] | 
46 | 12 |  | Cc1ccc2[nH]ncc2c1-c1nc(-c2ccc(C#N)cc2Nc2ncccn2)nc(C(N)=O)c1N [Compound 645] | 
47 | 6 |  | Cc1ccc(F)c(Nc2ncccc2-c2nc(C(N)=O)c(N)c(-c3c(C)cc(F)c4[nH]ncc34)n2)n1 [Compound 773] | 
48 | 18 |  | COc1ccc(-c2nc(C(N)=O)c(N)c(-c3c(C)ccc4[nH]ncc34)n2)c(Nc2ncccc2C)n1 [Compound 709] | 
49 | > 10000 |  | Cc1ccc2[nH]ncc2c1-c1nc(-c2cc(F)cnc2NC2CC3(COC3)C2)nc(C(N)=O)c1N [Compound 713] | 
50 |  | 12 | Cc1ccc2[nH]ncc2c1-c1nc(-c2cccnc2Nc2ncccc2F)cc(C(N)=O)c1N [Compound 846] | 
51 |  | 229 | Cc1ccc2[nH]ncc2c1-c1nc(-c2ccccc2[S+](C)[O-])nc(C(N)=O)c1N (stereo not shown) [Compound 820] | 
52 | 15 |  | Cc1cc(Nc2cc(F)ccc2-c2nc(C(N)=O)c(N)c(-c3c(C)ccc4[nH]ncc34)n2)ccn1 [Compound 564] | 
53 |  | 14 | Cc1cc(F)c2[nH]ncc2c1-c1nc(-c2ccc(F)nc2Nc2nc(C(F)F)ccc2F)nc(C(N)=O)c1N [Compound 867] | 
54 | 30 |  | Cc1ccc2[nH]ncc2c1-c1nc(-c2ccc(F)cc2Nc2ccccn2)nc(C(N)=O)c1N [Compound 516] | 
55 | 266 |  | Cc1ccc2[nH]ncc2c1-c1cc2c(oc3ccc(N4CCOCC4)nc32)c(C(N)=O)c1N [Compound 652] | 
56 |  | 35 | Cc1ccc2[nH]ncc2c1-c1nc(-c2cnsc2NC2CCOCC2)nc(C(N)=O)c1N [Compound 856] | 
57 |  | 53 | [2H]C([2H])([2H])c1ccc2[nH]ncc2c1-c1nc(-c2ccc(C(F)F)nc2Nc2nc(C)ncc2F)nc(C(N)=O)c1N [Compound 973] | 
58 | 6 |  | Cc1ccc(F)c(Nc2ncccc2-c2nc(C(N)=O)c(N)c(-c3c(C)c(F)cc4[nH]ncc34)n2)n1 [Compound 749] | 
59 | 1710 |  | Cc1ccc2[nH]ncc2c1-c1nc(-c2ccc(F)cc2Nc2cncc(C#N)c2)nc(C(N)=O)c1N [Compound 673] | 
60 |  | 396 | NC(=O)c1nc(-c2cccnc2NCC(F)(F)F)nc(-c2c(Cl)c(F)cc3[nH]ncc23)c1N [Compound 942] | 
61 |  | 144 | Cc1ccc2[nH]ncc2c1-c1nc(-c2ccc(C(F)F)nc2Nc2ncccn2)nc(C(N)=O)c1N [Compound 928] | 
62 | 534 |  | Cc1ccc2[nH]ncc2c1-c1nc(-c2cc(F)cnc2NC2CC(C)(C)C2)nc(C(N)=O)c1N [Compound 732] | 
63 |  | 37 | Cc1ccc(Cl)nc1Nc1nc(F)ccc1-c1nc(C(N)=O)c(N)c(-c2c(C)cc(F)c3[nH]ncc23)n1 [Compound 877] | 

Row | Compound | IC50 (2 h compound incubation) [nM] | IC50 (2 hours with compound) [nM] | other results
64 | Cc1ccc2[nH]ncc2c1-c1nc(-c2cc(F)cnc2NC2CCN(CC(F)F)CC2)nc(C(N)=O)c1N [Compound 876] |  | 734 | 
